Tests used:
[1] = target: Solute carrier family 23 member 2 (Homo sapiens) (UniProt Q9UGH3); details: 6 uM
Description: [14C]- AA uptake mediated by sodium-dependent ascorbate transporters, SVCT2 measured as Michaelis-Menten constant (Kt) at a concentration of 6 uM

[2] = target: Solute carrier family 23 member 2 (Homo sapiens) (UniProt Q9UGH3); details: 120 uM
Description: [14C]- AA uptake mediated by sodium-dependent ascorbate transporters, SVCT2 measured as Michaelis-Menten constant (Kt) at a concentration of 120 uM

[3] = target: Solute carrier family 23 member 2 (Homo sapiens) (UniProt Q9UGH3); details: 12 uM
Description: [14C]- AA uptake mediated by sodium-dependent ascorbate transporters, SVCT2 measured as Michaelis-Menten constant (Kt) at a concentration of 12 uM

[4] = target: Solute carrier family 23 member 2 (Homo sapiens) (UniProt Q9UGH3); details: 24 uM
Description: [14C]- AA uptake mediated by sodium-dependent ascorbate transporters, SVCT2 measured as Michaelis-Menten constant (Kt) at a concentration of 24 uM

[5] = target: Solute carrier family 23 member 2 (Homo sapiens) (UniProt Q9UGH3); details: 60 uM
Description: [14C]- AA uptake mediated by sodium-dependent ascorbate transporters, SVCT2 measured as Michaelis-Menten constant (Kt) at a concentration of 60 uM

[6] = test system: O=C(O)Cc1ccccc1Nc1c(Cl)cccc1Cl; details: 12 uM
Description: ([14C]- AA) and its uptake mediated by sodium-dependent ascorbate transporters, SVCT2 measured as Maximum velocity (Vmax) at concentration of 12 uM

[7] = test system: O=C(O)Cc1ccccc1Nc1c(Cl)cccc1Cl; details: 120 uM
Description: ([14C]- AA) and its uptake mediated by sodium-dependent ascorbate transporters, SVCT2 measured as Maximum velocity (Vmax) at concentration of 120 uM

[8] = test system: O=C(O)Cc1ccccc1Nc1c(Cl)cccc1Cl; details: 60 uM
Description: ([14C]- AA) and its uptake mediated by sodium-dependent ascorbate transporters, SVCT2 measured as Maximum velocity (Vmax) at concentration of 60 uM

[9] = test system: O=C(O)Cc1ccccc1Nc1c(Cl)cccc1Cl; details: 24 uM
Description: ([14C]- AA) and its uptake mediated by sodium-dependent ascorbate transporters, SVCT2 measured as Maximum velocity (Vmax) at concentration of 24 uM

[10] = test system: O=C(O)Cc1ccccc1Nc1c(Cl)cccc1Cl; details: 6 uM
Description: ([14C]- AA) and its uptake mediated by sodium-dependent ascorbate transporters, SVCT2 measured as Maximum velocity (Vmax) at concentration of 6 uM

Row | Molecule | Kt [1] | Kt [2] | Kt [3] | Kt [4] | Kt [5] | Vmax (nM hr-1 (10e6*cells)-1) [6] | Vmax (nM hr-1 (10e6*cells)-1) [7] | Vmax (nM hr-1 (10e6*cells)-1) [8] | Vmax (nM hr-1 (10e6*cells)-1) [9] | Vmax (nM hr-1 (10e6*cells)-1) [10]
1 | O=C(O)Cc1ccccc1Nc1c(Cl)cccc1Cl | 32 µM | 28 µM | 29 µM | 31 µM | 29 µM |  |  |  |  | 
2 | Solute carrier family 23 member 2 (Homo sapiens), Q9UGH3 |  |  |  |  |  | 2 | 0.26 | 0.49 | 1.4 | 3.1

Reference: ChEMBL document CHEMBL1135700, “Design, synthesis and activity of ascorbic acid prodrugs of nipecotic, kynurenic and diclophenamic acids, liable to increase neurotropic activity” (2002)
